What was measured:
[1] = system: excised cotton leaves at different developmental stages; assay: Ethylene-induced chlorophyll degradation in leaves of mature cotton plants; type: in vivo, cotton (Gossyium hirsutum barbadense L.)
Protocol: (§1) (1) Abscission—This is a very sensitive model system for studying the effects of plant hormones. Ethylene induces the process of abscission, while auxin delays it. In the laboratory the experimental system is based on plant organ explants, which include the abscission zone. Abscission is induced by exposure to ethylene and at the termination of the experiment the number of abscised organs, usually either leaf blades or petioles are counted and the fraction of abscission is calculated. In the case of fruit, the decrease in fruit retention force is analyzed. In cotton, when WS-CPD (the ethylene-action antagonist herein disclosed) is tested, the whole plants or explants are pretreated by spraying with the antagonist, dissolved in a phosphate buffer solution (10-20 mM, pH 7.0) including 0.1% commercially available Kinetic™ as surfactant, and left to incubate for a predetermined time, usually between 6 and 24 h. The plants or explants are then further exposed for 24 h to ethylene gas (5 to 20 μL L^−1). The plants or explants are then ventilated and incubated for the required time under controlled conditions. At the end of the experiment the percentage of abscission is determined. (2) Chlorophyll degradation—This is a standard model for studying senescence. Plant material (whole plants, excised leaves or leaf discs) are pretreated. In cotton, tobacco and wheat, when WS-CPD is tested, the whole plants or explants are pretreated by spraying with the antagonist, dissolved in phosphate buffer solution (10-20 mM, pH 7.0) including 0.1% commercially available Kinetic™ surfactant, and left to incubate for a predetermined time, usually between 6 and 241. The plants or explants are then further exposed for 24 h to ethylene gas (1 to 100 μL L^−1), or sprayed with Ethephon™ (wheat; 250 to 750 μL L^−1). The plants or explants are then ventilated and incubated for the required time under controlled conditions. At the end of the experiment a dimethylsulfoxide (DMSO) extract of the plant tissue is prepared, and the chlorophyll content of the extract is determined by spectrophotometric analysis. The chlorophyll content is reported either on a fresh, dry weight basis, or on a surface area basis. (3) Epinasty—This is also one of the classical methods for studying ethylene effects in plants. The extent of ethylene-induced epinasty of leaves is determined by measuring the change of the angle between the petiole and the stem shoot or blade. After exposure of the intact plant to ethylene, the upright grown leaves bend downward. The increase in the angle values (degrees) between petiole and the stem is used as a measure of the effect of the ethylene. […]

[2] = system: tobacco seedlings; assay: Ethylene-induced chlorophyll degradation in tobacco seedling leaves; type: in vivo, tobacco (Nicotiana tabacum var. 'Samsun')
Protocol: as §1

O=C([O-])CCC1=CC1.[Na+] [WS-CPD, 3-cyclopropyl-1-enyl-propanoic sodium salt]
ethylene-induced chlorophyll degradation ([1]; mature leaves, WS-CPD 480 μg L^−1 (so in the source)): less effective | inhibition of ethylene-induced chlorophyll degradation ([1]; mature leaves, WS-CPD 90 and 240 μg mL^−1): 95% | ethylene-induced chlorophyll degradation ([1]; young leaves, WS-CPD 10 μg mL^−1, ethylene 10 μL L^−1): completely antagonized | ethylene-induced chlorophyll degradation ([1]; young leaves, WS-CPD 270 μg mL^−1): less effective | ethylene-induced chlorophyll degradation ([2]; WS-CPD 14 μg mL^−1 pretreatment spray, young and mature leaves): completely reversed | ethylene-induced chlorophyll degradation ([2]; higher concentrations of WS-CPD): less effective
